Source: US9630941B2 (priority 2008, dated 2017)
Entries after “also recorded” stand apart in the source; their conditions may differ.

Columns and labels:
[1] = Thermal stability, 120° C. for 10 min; assay type: physicochemical; details: for CBN content of the sample after heating / Drug remaining / Drug remaining (%) / THC content of the sample after heating: 120° C. for 10 min; for Drug remaining (%): % of initial; for CBN content of the sample, initial / Initial, μg (drug itself) / THC content of the sample, initial: before heating
Description: C. Thermal Stability—120° C. for 10 min.

[2] = tested on: intraocular pressure (IOP) induced model of glaucoma; assay: Rabbit glaucoma model, IOP lowering after topical instillation; details: THC in Tocrisolve, 50 μL topical
[3] = Plasma THC from HME buccal patches in swine model; assay type: in vivo; details: swine
Description: THC was used as control formulation. Plasma was sampled from each animal at predetermined times and the amount of THC in the plasma was determined.
FIG. 20: Plasma THC concentrations as a function of time from THC-Val-HS loaded HME buccal patches. Data represents the mean value from 4 pigs. The animals were maintained under anesthesia for the first 4 hours and were then allowed to come out of anesthesia and given access to food and water.
A dose dependent plasma concentration time profile was then evaluated.
Plasma THC concentrations as a function of time and dose from THC-Val-HS loaded HME patches. Data represents the mean value. The animals for maintained under anesthesia for the first 4 hours and were then allowed to come out of anesthesia and given access to food and water.

[4] = In vivo ocular bioavailability of THC after topical formulations; details: for concentration at 1 h: male, New Zealand albino, rabbit, topical
[5] = Chemical stability pH dependent at 25° C.; assay type: physicochemical
Description: B. Chemical Stability pH Dependent at 25° C.

[6] = Aqueous solubility, pH dependent; assay type: physicochemical
[7] = Control (IPBS) stability for the buccal homogenate study; assay type: physicochemical
Description: (§1) b. Porcine Buccal Tissue Homogenate Stability
(§2) Protein Concentration 2 mg/ml

[8] = Bioreversion: plasma stability, rabbit plasma; assay type: in vitro ADME
[9] = Porcine buccal tissue homogenate stability; assay type: in vitro ADME; details: protein concentration 2 mg/ml
Description: as §1, §2

[10] = Bioreversion: plasma stability, porcine plasma; assay type: in vitro ADME

Q: Which “Drug loading (%)” value [1] does the source give for `CCCCCc1cc(O)c2c(c1)OC(C)(C)C1CCC(C)=CC21` (stereo not drawn) [THC, Δ^9-Tetrahydrocannabinol, reference compound] here?
A: 85.38 ± 7.25%

Q: What about the “CBN content of the sample after heating” value [1] of the same compound?
A: 53.85 ± 1.60 µg

Q: What about the “Drug remaining” value [1] of the same compound?
A: 1214.10 ± 39.12 µg

Q: What about the “Drug remaining (%)” value [1] of the same compound?
A: (95.05 ± 5.05) %

Q: And the “CBN content of the sample, initial” value [1]?
A: 56.76 ± 4.86 µg

Q: And the “Initial, μg (drug itself)” value [1]?
A: 1280.70 ± 108.77 µg

Q: What about the “maximum observed effect, drop in IOP from baseline” value [2] of the same compound?
A: 40%

Q: And the “time for IOP to return to 90% of baseline” value [2]?
A: ≤ 2 h

Q: What about the “time to maximum effect post topical application” value [2] of the same compound?
A: ≤ 30 min

Q: What about the “Transbuccal systemic bioavailability of THC” value ([3]; THC loaded HME patch) of the same compound?
A: no bioavailability; also recorded: extremely poor

Q: And the “THC levels in plasma from transmucosal HME patches” value ([3]; buccal patch)?
A: No THC levels were detected

Q: What about the “THC concentrations in aqueous humor, iris-ciliary bodies / anterior segment ocular tissues” value ([4]; 1 hour post topical application) of the same compound?
A: not observed

Q: What about the concentration at 1 h ([4]; cornea, 50 μL of 0.1% w/v THC) of the same compound?
A: 1380 ng/g

Q: What about the concentration at 1 h ([4]; cornea, 50 μL of 0.37% w/v THC) of the same compound?
A: 6010 ng/g

Q: What about the concentration at 1 h ([4]; sclera, 50 μL of 0.1% w/v THC) of the same compound?
A: 416 ng/g

Q: And the concentration at 1 h ([4]; sclera, 50 μL of 0.37% w/v THC)?
A: 684 ng/g

Q: And the “First order rate constant” value ([5]; Buffer pH 5.0, 25° C.)?
A: 0.017 h⁻¹

Q: What about the “First order rate constant” value ([5]; Buffer pH 7.0, 25° C.) of the same compound?
A: 0.0098 h⁻¹

Q: What about the solubility ([6]; aqueous medium at pH 2, pH 2, aqueous buffer) of the same compound?
A: 0.95 µg/mL

Q: What about the solubility ([6]; aqueous medium at pH 3, pH 3, aqueous buffer) of the same compound?
A: 2.23 µg/mL

Q: What about the solubility ([6]; aqueous medium at pH 4, pH 4, aqueous buffer) of the same compound?
A: 1.27 µg/mL

Q: What about the solubility ([6]; aqueous medium at pH 5, pH 5, aqueous buffer) of the same compound?
A: 2.23 µg/mL

Q: And the solubility ([6]; aqueous medium at pH 6, pH 6, aqueous buffer)?
A: 2.23 µg/mL

Q: What about the solubility ([6]; aqueous medium at pH 7, pH 7, aqueous buffer) of the same compound?
A: 2.23 µg/mL

Q: What about the solubility ([6]; aqueous medium at pH 8, pH 8, aqueous buffer) of the same compound?
A: 2.23 µg/mL

Q: What about the solubility ([6]; aqueous medium, pH 3, aqueous buffer) of the same compound?
A: 2.23 µM

Q: And the solubility ([6]; aqueous medium, pH 4, aqueous buffer)?
A: 1.27 µM

Q: And the solubility ([6]; aqueous medium, pH 5, aqueous buffer)?
A: 2.23 µM

Q: And the solubility ([6]; aqueous medium, pH 6, aqueous buffer)?
A: 2.23 µM

Q: What about the solubility ([6]; aqueous medium, pH 7, aqueous buffer) of the same compound?
A: 2.23 µM

Q: And the solubility ([6]; aqueous medium, pH 8, aqueous buffer)?
A: 2.23 µM

Q: And the solubility ([6]; pH 2, aqueous buffer)?
A: 0.95 µM

Q: What about the solubility ([6]; water) of the same compound?
A: 2.23 µM

Q: What about the solubility ([6]; water, H20) of the same compound?
A: 2.23 µg/mL

Q: With `CCCCCc1cc(OC(=O)C(N)CC(C)C)c2c(c1)OC(C)(C)C1CCC(C)=CC21` (stereo not drawn) [THC-Leucinate (8), Δ^9-THC-leucinate] as the compound, how does the K [7] read?
A: 5.49 ± 0.46 ×10^−3 min^−1

Q: What about the “Drug loading (%)” value [1] of the same compound?
A: 103.65 ± 4.12%

Q: And the “CBN content of the sample after heating” value [1]?
A: 20.27 ± 0.43 µg

Q: And the “Drug remaining” value [1]?
A: 1383.29 ± 40.73 µg

Q: What about the “THC content of the sample after heating” value [1] of the same compound?
A: 25.86 ± 0.83 µg

Q: What about the “Drug remaining (%)” value [1] of the same compound?
A: (88.99 ± 0.92) %

Q: What about the “CBN content of the sample, initial” value [1] of the same compound?
A: 16.34 ± 0.50 µg

Q: And the “Initial, μg (drug itself)” value [1]?
A: 1554.80 ± 61.76 µg

Q: What about the “THC content of the sample, initial” value [1] of the same compound?
A: -6.13 ± 0.84 µg

Q: What about the K [8] of the same compound?
A: 33.84 ± 10.92 ×10^−2 min^−1

Q: What about the T1/2 [8] of the same compound?
A: 2.160 ± 0.697 min

Q: What about the K [9] of the same compound?
A: 22.98 ± 1.49 ×10^−3 min^−1

Q: And the T1/2 [9]?
A: 30.21 ± 1.95 min

Q: What about the “First order rate constant” value ([5]; Buffer pH 5.0, 25° C.) of the same compound?
A: 15.94 ± 3.38 ×10^−3 h^−1

Q: What about the “First order rate constant” value ([5]; Buffer pH 7.0, 25° C.) of the same compound?
A: 85.91 ± 16.83 ×10^−3 h^−1

Q: And the “First order rate constant” value ([5]; Buffer pH 9.0, 25° C.)?
A: 119.98 ± 33.51 ×10^−3 h^−1

Q: What about the “First order rate constant” value ([5]; Water, 25° C.) of the same compound?
A: 8.51 ± 2.80 ×10^−3 h^−1

Q: What about the “Aqueous Solubility” value ([6]; pH 1.2) of the same compound?
A: 9.36 ± 0.11 µg/mL

Q: What about the “Aqueous Solubility” value ([6]; pH 1.2, listed as THC-Leucine) of the same compound?
A: 21.89 ± 0.26 µM

Q: What about the “Aqueous Solubility” value ([6]; pH 2) of the same compound?
A: 23.71 ± 0.40 µg/mL

Q: What about the “Aqueous Solubility” value ([6]; pH 2, listed as THC-Leucine) of the same compound?
A: 55.46 ± 0.93 µM

Q: And the “Aqueous Solubility” value ([6]; pH 3)?
A: 5.17 ± 0.60 µg/mL

Q: And the “Aqueous Solubility” value ([6]; pH 3, listed as THC-Leucine)?
A: 12.08 ± 1.40 µM

Q: And the “Aqueous Solubility” value ([6]; pH 4)?
A: 1.95 ± 0.09 µg/mL

Q: And the “Aqueous Solubility” value ([6]; pH 4, listed as THC-Leucine)?
A: 4.33 ± 0.20 µM

Q: And the “Aqueous Solubility” value ([6]; pH 5)?
A: 0.23 ± 0.03 µg/mL

Q: What about the “Aqueous Solubility” value ([6]; pH 5, listed as THC-Leucine) of the same compound?
A: 0.54 ± 0.06 µM

Q: What about the “Aqueous Solubility” value ([6]; pH 6) of the same compound?
A: 0.08 ± 0.01 µg/mL

Q: What about the “Aqueous Solubility” value ([6]; pH 6, listed as THC-Leucine) of the same compound?
A: 0.19 ± 0.02 µM

Q: What about the K [10] of the same compound?
A: 42.70 ± 3.58 ×10^−2 min^−1

Q: What about the T1/2 [10] of the same compound?
A: 1.629 ± 0.137 min

Q: Which K [7] does the source give for `CCCCCc1cc(OC(=O)[C@@H](N)Cc2ccc(O)cc2)c2c(c1)OC(C)(C)[C@@H]1CCC(C)=C[C@@H]21` [THC-Tyrosinate (11), Δ^9-THC-tyrosinate] here?
A: 1.11 ± 0.04 ×10^−3 min^−1

Q: What about the “Drug loading (%)” value [1] of the same compound?
A: 81.51 ± 4.28%

Q: What about the “CBN content of the sample after heating” value [1] of the same compound?
A: 24.42 ± 0.21 µg

Q: And the “Drug remaining” value [1]?
A: 1138.93 ± 60.67 µg

Q: What about the “THC content of the sample after heating” value [1] of the same compound?
A: 123.75 ± 2.69 µg

Q: And the “Drug remaining (%)” value [1]?
A: (93.15 ± 0.06) %

Q: What about the “CBN content of the sample, initial” value [1] of the same compound?
A: 35.68 ± 1.16 µg

Q: And the “Initial, μg (drug itself)” value [1]?
A: 1222.61 ± 64.25 µg

Q: What about the “THC content of the sample, initial” value [1] of the same compound?
A: 92.95 ± 3.08 µg

Q: And the K [9]?
A: 21.52 ± 0.55 ×10^−3 min^−1

Q: What about the T1/2 [9] of the same compound?
A: 32.21 ± 0.81 min

Q: What about the “First order rate constant” value ([5]; Buffer pH 5.0, 25° C.) of the same compound?
A: 6.32 ± 3.14 ×10^−3 h^−1

Q: What about the “First order rate constant” value ([5]; Buffer pH 7.0, 25° C.) of the same compound?
A: 25.02 ± 0.88 ×10^−3 h^−1

Q: And the “First order rate constant” value ([5]; Buffer pH 9.0, 25° C.)?
A: 53.88 ± 11.36 ×10^−3 h^−1

Q: What about the “First order rate constant” value ([5]; Water, 25° C.) of the same compound?
A: 9.40 ± 0.88 ×10^−3 h^−1

Q: What about the “Aqueous Solubility” value ([6]; pH 1.2) of the same compound?
A: 41.92 ± 2.14 µg/mL

Q: And the “Aqueous Solubility” value ([6]; pH 1.2, listed as THC-Tyrosine)?
A: 87.76 ± 4.48 µM

Q: What about the “Aqueous Solubility” value ([6]; pH 2) of the same compound?
A: 15.76 ± 0.66 µg/mL

Q: And the “Aqueous Solubility” value ([6]; pH 2, listed as THC-Tyrosine)?
A: 33.00 ± 1.38 µM

Q: What about the “Aqueous Solubility” value ([6]; pH 3) of the same compound?
A: 5.28 ± 1.78 µg/mL

Q: And the “Aqueous Solubility” value ([6]; pH 3, listed as THC-Tyrosine)?
A: 11.06 ± 3.73 µM

Q: What about the “Aqueous Solubility” value ([6]; pH 4) of the same compound?
A: 0.73 ± 0.03 µg/mL

Q: And the “Aqueous Solubility” value ([6]; pH 4, listed as THC-Tyrosine)?
A: 1.52 ± 0.06 µM

Q: What about the K [10] of the same compound?
A: 93.53 ± 8.79 ×10^−2 min^−1

Q: What about the T1/2 [10] of the same compound?
A: 0.74 ± 0.07 min
